# Experimental data from patent US20240050436A1, “COMPOSITIONS AND METHODS USED FOR RETINAL ISCHEMIA OR DIABETES” (The United States GOVERNMENT As Represented By The …, priority 2021, published 2024).
# Key:
# [1] = tested on: HREs; experiment: Cell migration assay (wounded HREs, CM of treated MSCs); assay type: cell-based, human; settings: 12 h of treatment with CM of modulated MSCs
# Experimental: HREs were grown to confluence and then were wound with a single sterile cell scraper of constant diameter. Cells were divided into three groups, treated with regular media without FBS, and 1:1 mixture of FBS-free regular media and CM of vehicle- or treated-MSCs. Images of wounded areas were taken immediately after adding the treatment using a phase contrast microscope, and baseline were marked under the cell culture dish with blue marker. After 12 h, images of same field were taken and % cell migration was calculated. Each condition was verified in triplicate and was repeated using independent cultures.
# [2] = normal young and elderly individuals; cited from earlier work
# [3] = tested on: HREs; experiment: RT-PCR gene expression in HREs treated with CM of p75NTR-modulated MSCs; assay type: cell-based, human
# Experimental: GFP-labeled mouse MSCs were obtained as a kind gift from Dr. William D. Hill (MUSC, Charleston, SC) and used between passages 5-9. MSCs cells were cultured in high glucose DMEM (4.5 g/L D-glucose, Thermo-Fisher Grand Island, NY, USA) supplemented with 10% FBS and 1% penicillin/streptomycin at 37° C. and 5% CO2. Knocking down p75NTR expression was performed according to manufacturer's instructions (Santa Cruz Biotechnology Inc., Dallas, TX, USA). Briefly, MSCs were shifted to antibiotic-free medium over night when 60-80% confluent. Cells were transfected with Si-RNA against p75NTR receptor (sc-37268) or scrambled (sc-37007) with the aid of lipofectamine transfection reagent (sc-29528) for 6 h. DMEM medium containing 2× of FBS and antibiotic was added on top of pure transfection medium for an extra 12 h. Next, transfection medium was removed and cells were allowed to recover in 1×DMEM medium for 6 h. For in vivo studies, cells were collected in sterile PBS (50,000 cells/μL) for intravitreal injection 48 h after I/R. For additional set of experiments, MSCs were treated with the p75NTR modulator (LM11A-31, 200 nM). Confluent MSCs (80% confluent) were treated with LM11A-31 or its vehicle for 12 h. Then, condition media were collected as well as cell lysates using mirVANA™ PARIS™ Kit (Ambion Inc., Austin, TX, USA), according to manufacturer's instructions.
# All human retinal endothelial (HRE) cell studies were in accordance with Association for Research in Vision and Ophthalmology and Charlie Norwood Veterans Affairs Medical Center, research and ethics committee. HREs and supplies were purchased from Cell Systems Corporation (Kirkland, WA, USA) and VEC Technology Inc. (Rensselaer, NY, USA).
# Retinas samples and MSCs lysates were processed using (mirVANA™ PARIS™ Kit, Ambion Inc., Austin, TX, USA) and RNA was purified and quantified as described by the manufacturer's instructions. A one-step quantitative RT-PCR kit (Invitrogen, Carlsbad, CA, USA) was used to amplify 10 ng retinal mRNA. Quantitative PCR was conducted using a StepOnePlus qPCR system (Applied BioSystems, Life Technologies, Waltham, MA, USA). For HREs, RNA isolation was performed using the TRIzol Reagent (Invitrogen, Waltham, MA, USA), according to the manufacturer's instructions. RNA concentration was quantified by spectrophotometry at 260 nm using Nanodrop 2000 (Thermo Fisher Scientific, Waltham, MA, USA). A total of 1 μg of RNA was reverse transcribed to prepare cDNA using the RNA to cDNA EcoDry premix (Takara Bio USA Inc., Mountain View, CA, USA). Real-time PCR was performed using the CFX96 PCR instrument with matched primers (See Table 1) and Universal SYBR Green Supermix (Bio-Rad, Hercules, CA, USA). The following PCR parameters were used: initial denaturation cycle at 95° C. for 3 min, followed by 40 amplification cycles at 95° C. for 10 s, 56° C. for 15 s, and 72° C. for 1 min. The results are presented as the fold change in relative gene expression quantified using the delta-delta CT method and normalized to internal controls (18 S, GAPDH) and expressed relative to controls.
# [4] = HREs treated with CM of modulated MSCs vs controls
# [5] = HREs treated with CM of modulated MSCs, fold change, delta-delta CT, relative to controls
smiles,measurement,setting,value
"CCC(C)C(N)C(=O)NCCN1CCOCC1 (stereo not drawn) [LM11A-31, 2-amino-3-methyl-pentanoic acid [2-morpholin-4-yl-ethyl]-amide]","HREs migration, increase",[1],1.34 Fold
same,phase I safety trial outcome,[2],successfully completed
same,"Akt gene expression in HREs, increase",[3]; [4],~2.7 Fold
same,"Bax gene expression in HREs, increase",[3]; [4],~1.9 Fold
same,"Bcl-2 gene expression in HREs, increase",[3]; [4],~2.5 Fold
same,"VEGF-A gene expression in HREs, increase",[3]; [4],~3.5 Fold
same,"p53 gene expression in HREs, change",[3]; [4],no change
same,p53 relative gene expression in HREs (mean±SEM),"[3]; HREs treated with CM of modulated MSCs, first value of the printed pair",3.7±3.4
same,Akt relative gene expression in HREs (mean±SEM),[3]; [5],2.68±0.53
same,Bax relative gene expression in HREs (mean±SEM),[3]; [5],1.88±0.105
same,Bcl-2 relative gene expression in HREs (mean±SEM),[3]; [5],2.45±0.24
same,VEGF-A relative gene expression in HREs (mean±SEM),[3]; [5],3.58±0.58
